Data on twelve compounds can be found in patent US7709498B2, “Quinoline derivatives as antibacterial agents” (Janssen Pharmaceutica N.V., priority 2005, dated 2010).

In brackets after ≈: the same amount, converted by molar mass.

Holding throughout (assay type): cell-based
For test [1], the system named is Listeria monocytogenes (ATCC49594). As to the kind of experiment: Microtitre plate assay, IC90 determination, LMO 49594. Particulars: 90% inhibitory concentration for bacterial growth, 37° C., resazurin fluorescence; for IC90 (μg/ml) LMO 49594: 24 hours; for IC90: Listeria monocytogenes, ATCC49594, 24 h, read-out: IC90 (μg/ml) LMO 49594. How it is done: (§1) The bacteria used in this study were grown overnight in flasks containing 100 ml Mueller-Hinton Broth (Becton Dickinson—cat. no. 275730) in sterile de-ionized water, with shaking, at 37° C. Stocks (0.5 ml/tube) were stored at −70° C. until use. Bacteria titrations were performed in microtiter plates to detect the TCID50, in which the TCID50 represents the dilution that gives rise to bacterial growth in 50% of inoculated cultures.
(§2) In general, an inoculum level of approximately 100 TCID50 was used for susceptibility testing.
(§3) Flat-bottom, sterile 96-well plastic microtiter plates were filled with 180 μl of sterile deionized water, supplemented with 0.25% BSA. Subsequently, stock solutions (7.8× final test concentration) of compounds were added in 45 μl volumes in column 2. Serial five-fold dilutions (45 μl in 180 μl) were made directly in the microtiter plates from column 2 to reach column 11. Untreated control samples with (column 1) and without (column 12) inoculum were included in each microtiter plate. Depending on the bacteria type, approximately 10 to 60 CFU per well of bacteria inoculum (100 TCID50), in a volume of 100 μl in 2.8× Mueller-Hinton broth medium, was added to the rows A to H, except column 12. The same volume of broth medium without inoculum was added to column 12 in row A to H. The cultures were incubated at 37° C. for 24 hours under a normal atmosphere (incubator with open air valve and continuous ventilation). At the end of incubation, one day after inoculation, the bacterial growth was quantitated fluorometrically. Therefore resazurin (0.6 mg/ml) was added in a volume of 20 μl to all wells 3 hours after inoculation, and the plates were re-incubated overnight. A change in colour from blue to pink indicated the growth of bacteria. The fluorescence was read in a computer-controlled fluorometer (Cytofluor Biosearch) at an excitation wavelength of 530 nm and an emission wavelength of 590 nm. The % growth inhibition achieved by the compounds was calculated according to standard methods. The IC90 (expressed in μg/ml) was defined as the 90% inhibitory concentration for bacterial growth.
(§4) BSU 3639 means Bacillus subtilis (ATCC43639); ECO 25922 means Escherichia coli (ATCC25922); EFA 14506 means Enterococcus faecalis (ATCC14506); EFA 29212 means Enterococcus faecalis (ATCC29212); LMO 49594 means Listeria monocytogenes (ATCC49594); PAE 27853 means Pseudomonas aeruginosa (ATCC27853); SMU 33402 means Streptococcus mutans (ATCC33402); SPN 6305 means Streptococcus pneumoniae (ATCC6305); SPY 8668 means Streptococcus pyogens (ATCC8668); STA 43300 means Staphylococcus aureus (ATCC43300); STA 25923 means Staphylococcus aureus (ATCC25923); STA 29213 means Staphylococcus aureus (ATCC29213); STA RMETH means methicilline resistant Staphylococcus aureus (MRSA) (a clinical isolate from the University of Antwerp). ATCC means American type tissue culture.

Test [2] concerns Streptococcus mutans (ATCC33402). The test can be described thus: Microtitre plate assay, IC90 determination, SMU 33402. The note with it: 90% inhibitory concentration for bacterial growth, 37° C., resazurin fluorescence; for IC90: Streptococcus mutans, ATCC33402, 24 h, read-out: IC90 (μg/ml) SMU 33402. How it is done: as §1, §2, §3, §4
In general terms: The colour change of resazurin is a common sign of viable cells or microbes.

The test system of test [3] is Staphylococcus aureus (ATCC43300). The test can be described thus: Microtitre plate assay, IC90 determination, STA 43300. Particulars: Staphylococcus aureus, ATCC43300, 24 h, 90% inhibitory concentration for bacterial growth, 37° C., resazurin fluorescence, read-out: IC90 (μg/ml) STA 43300. How it is done:
as §1, §2, §3, §4

Test [4] deals with Bacillus subtilis (ATCC43639). As to the kind of experiment: Microtitre plate assay, IC90 determination, BSU 43639. Particulars: 90% inhibitory concentration for bacterial growth, 37° C., resazurin fluorescence; for IC90: Bacillus subtilis, ATCC43639, 24 h, read-out: IC90 (μg/ml) BSU 43639; for IC90 (μg/ml) BSU 43639: 24 hours. How it is done: as §1, §2, §3, §4
Test [5] concerns Streptococcus pyogens (ATCC8668). The test can be described thus: Microtitre plate assay, IC90 determination, SPY 8668. The note with it: 90% inhibitory concentration for bacterial growth, 37° C., resazurin fluorescence; for IC90 (μg/ml) SPY 8668: 24 hours; for IC90: Streptococcus, ATCC8668, 24 h, read-out: IC90 (μg/ml) SPY 8668. How it is done:
as §1, §2, §3, §4

Test [6] concerns Streptococcus pneumoniae (ATCC6305). As to the kind of experiment: Microtitre plate assay, IC90 determination, SPN 6305. Particulars: 90% inhibitory concentration for bacterial growth, 37° C., resazurin fluorescence; for IC90: Streptococcus pneumoniae, ATCC6305, 24 h, read-out: IC90 (μg/ml) SPN 6305; for IC90 (μg/ml) SPN 6305: 24 hours. How it is done: as §1, §2, §3, §4
Test [7] deals with Enterococcus faecalis (ATCC29212). The test can be described thus: Microtitre plate assay, IC90 determination, EFA 29212. The note with it: 90% inhibitory concentration for bacterial growth, 37° C., resazurin fluorescence; for IC90 (μg/ml) EFA 29212: 24 hours; for IC90: Enterococcus faecalis, ATCC29212, 24 h, read-out: IC90 (μg/ml) EFA 29212. How it is done: as §1, §2, §3, §4

The test system of test [8] is Pseudomonas aeruginosa (ATCC27853). The test can be described thus: Microtitre plate assay, IC90 determination, PAE 27853. Particulars: 90% inhibitory concentration for bacterial growth, 37° C., resazurin fluorescence; for IC90: Pseudomonas aeruginosa, ATCC27853, 24 h, read-out: IC90 (μg/ml) PAE 27853. How it is done: as §1, §2, §3, §4

In the case of `COc1nc2ccc(Cl)cc2cc1C(c1ccccc1)C(O)(CCN(C)C)c1ccccc1` (stereo not drawn) [Compound 31], the “IC90 (μg/ml) LMO 49594” value in test [1] is 4.1 µg/mL (≈ 8.89 µM). The IC90 stood at 10.3 µg/mL (≈ 22.3 µM) in test [2]; 11.6 µg/mL (≈ 25.2 µM) in test [3]; 10.3 µg/mL (≈ 22.3 µM) in test [4]; 5.2 µg/mL (≈ 11.3 µM) in test [6]; 10.3 µg/mL (≈ 22.3 µM) in test [8]. Also, the “IC90 (μg/ml) SPY 8668” value in test [5] stood at 1.8 µg/mL (≈ 3.9 µM). Moreover, the “IC90 (μg/ml) EFA 29212” value in test [7] worked out at 4.6 µg/mL (≈ 9.98 µM).
On to `CCN(CC)CCC(O)(c1ccccc1)C(c1ccccc1)c1cc2cc(Br)ccc2nc1OC` (stereo not drawn) [Compound 18], for which the IC90 in test [1] and in test [7] was 13.3 µg/mL (≈ 24.9 µM) in each case. Moreover, in test [6], the “IC90 (μg/ml) SPN 6305” value came to 0.7 µg/mL (≈ 1.31 µM).
Regarding `COc1nc2ccc(Cl)cc2cc1C(c1ccccc1)C(O)(CCN(C)C)c1ccccc1` (stereo not drawn) [Compound 30], in test [1], the “IC90 (μg/ml) LMO 49594” value was found to be 10.3 µg/mL (≈ 22.3 µM). Moreover, the “IC90 (μg/ml) SMU 33402” value in test [2] (24 hours) was 10.3 µg/mL (≈ 22.3 µM). Moreover, the “IC90 (μg/ml) SPY 8668” value in test [5] was 10.3 µg/mL (≈ 22.3 µM). For the same compound, the “IC90 (μg/ml) SPN 6305” value in test [6] turned out to be 5.2 µg/mL (≈ 11.3 µM). Further, in test [7], the “IC90 (μg/ml) EFA 29212” value was 10.3 µg/mL (≈ 22.3 µM). In addition, the “IC90 (μg/ml) PAE 27853” value in test [8] (24 hours) was 9.2 µg/mL (≈ 20 µM).
Consider `COc1nc2ccc(-c3ccccc3)cc2cc1C(c1ccccc1)C(O)(CCN(C)C)c1ccccc1` (stereo not drawn) [Compound 27], for which the “IC90 (μg/ml) LMO 49594” value in test [1] is 8.9 µg/mL (≈ 17.7 µM). The “IC90 (μg/ml) BSU 43639” value in test [4] stood at 10.0 µg/mL (≈ 19.9 µM). Also, in test [6], the “IC90 (μg/ml) SPN 6305” value is 12.6 µg/mL (≈ 25.1 µM).
`COc1nc2ccc(Br)cc2cc1C(c1ccccc1)C(O)(CCN(C)C)c1ccc2c(c1)OCCO2` (stereo not drawn) [Compound 78]: the IC90 in test [2] and in test [5] was 11.2 µg/mL (≈ 19.9 µM) throughout. Further, the “IC90 (μg/ml) SPN 6305” value in test [6] is 11.2 µg/mL (≈ 19.9 µM).
For `COc1nc2ccc(Br)cc2cc1C(c1ccccc1)C(O)(CCN(C)C)c1ccc2ccccc2c1` (stereo not drawn) [Compound 46], the IC90 in test [1] amounted to 2.8 µg/mL (≈ 5.04 µM); in test [2], 5.6 µg/mL (≈ 10.1 µM); in test [3] it was 5.6 µg/mL (≈ 10.1 µM); in test [5] it was 0.6 µg/mL (≈ 1.08 µM); in test [6], 2.8 µg/mL (≈ 5.04 µM); in test [7] it was 5 µg/mL (≈ 9 µM). In test [8], the IC90 amounted to 5 µg/mL (≈ 9 µM).
As for `COc1nc2ccc(Br)cc2cc1C(c1ccccc1)C(O)(CCN(C)C)c1ccccc1F` (stereo not drawn) [Compound 69], the figures for the IC90 in test [1], in test [6] and in test [8] were 10.4 µg/mL (≈ 19.9 µM), 13.1 µg/mL (≈ 25 µM) and 10.4 µg/mL (≈ 19.9 µM), respectively.
For the compound `COc1nc2ccc(Br)cc2cc1C(c1ccccc1)C(O)(CCN1CCCCC1)c1ccc2ccccc2c1` (stereo not drawn) [Compound 129], the IC90 came to 11.9 µg/mL (≈ 20 µM) in test [2], 11.9 µg/mL (≈ 20 µM) in test [5] and 15 µg/mL (≈ 25.2 µM) in test [6].
With `COc1nc2ccc(Br)cc2cc1C(c1ccc(Cl)cc1)C(O)(CCN(C)C)c1ccccc1` (stereo not drawn) [Compound 36], the IC90 in test [1] turned out to be 5.4 µg/mL (≈ 10 µM); in test [2], 3.8 µg/mL (≈ 7.04 µM); in test [3] it was 4.8 µg/mL (≈ 8.89 µM); in test [4], 24.1 µg/mL (≈ 44.6 µM); in test [5], 0.4 µg/mL (≈ 0.741 µM); in test [7] it was 4.8 µg/mL (≈ 8.89 µM). For the same compound, in test [8], the IC90 was 4.8 µg/mL (≈ 8.89 µM). In addition, in test [6], the “IC90 (μg/ml) SPN 6305” value turned out to be 2.7 µg/mL (≈ 5 µM).
As for `COc1nc2ccc(Br)cc2cc1C(c1ccccc1)C(O)(CCN1CCN(C)CC1)c1ccc2ccccc2c1` (racemic) [Compound 136], in test [1], the “IC90 (μg/ml) LMO 49594” value was 10.6 µg/mL (≈ 17.4 µM). In addition, in test [4], the “IC90 (μg/ml) BSU 43639” value came out at 10.6 µg/mL (≈ 17.4 µM). In test [7], the “IC90 (μg/ml) EFA 29212” value is 10.6 µg/mL (≈ 17.4 µM).
Consider `COc1nc2ccc(Br)cc2cc1C(c1ccccc1)C(O)(CCN(C)C)c1ccsc1` (stereo not drawn) [Compound 25], for which the IC90 stood at 11.5 µg/mL (≈ 22.5 µM) in test [1]; 11.5 µg/mL (≈ 22.5 µM) in test [2]; 12.8 µg/mL (≈ 25 µM) in test [3]; 4.1 µg/mL (≈ 8.02 µM) in test [5]; 11.5 µg/mL (≈ 22.5 µM) in test [7]. For the same compound, the “IC90 (μg/ml) SPN 6305” value in test [6] came to 12.8 µg/mL (≈ 25 µM).
On to `COc1nc2ccc(-c3ccc(CO)o3)cc2cc1C(c1ccccc1)C(O)(CCN(C)C)c1cccc2ccccc12` (stereo not drawn) [Compound 212], for which the IC90 in test [4] came to 11.4 µg/mL (≈ 19.9 µM).
